The record followed here is PMC9780108, “An intrinsically disordered antimicrobial peptide dendrimer from stereorandomized virtual screening” (Cell Reports. Physical Science, 2022).

Experiment [1] deals with S aureus COL (methicillin-resistant Staphylococcus aureus).
In another experiment the test system is S. maltophilia. The following applies: pH 7.4.
In a further experiment the test system is P. aeruginosa PA14. Particulars: PA14, pH 7.4.
The next experiment relates to P. aeruginosa ZEM-1A. Particulars: ZEM-1A, pH 7.4.
Another experiment relates to E. cloacae. The following applies: pH 7.4.
The next experiment relates to K. pneumoniae OXA-48. The following applies: OXA-48, pH 7.4.
Another experiment relates to P. aeruginosa ZEM9A. The following applies: ZEM9A, pH 7.4.
In another experiment the test system is B. cenocepacia. Particulars: pH 7.4.
Another experiment concerns S. aureus Newman. The following applies: Newman, pH 7.4.

The structures appear in SMILES notation. Values after ≈ are worked out from the molar mass of the structure shown. Residues, ends and D or L forms follow the SMILES beside them. A value given as a limit tells only on which side of the number the result lay.

Regarding `CC(C)C[C@H](NC(=O)[C@H](CC(C)C)NC(=O)[C@H](CCCCN)NC(=O)[C@H](CCCCNC(=O)[C@H](CC(C)C)NC(=O)[C@H](CCCCNC(=O)[C@H](CC(C)C)NC(=O)[C@@H](N)CCCCN)NC(=O)[C@H](CC(C)C)NC(=O)[C@@H](N)CCCCN)NC(=O)[C@H](CC(C)C)NC(=O)[C@H](CCCCNC(=O)[C@H](CC(C)C)NC(=O)[C@@H](N)CCCCN)NC(=O)[C@H](CC(C)C)NC(=O)[C@@H](N)CCCCN)C(=O)NCCCC[C@H](NC(=O)[C@H](CC(C)C)NC(=O)[C@H](CC(C)C)NC(=O)[C@H](CCCCN)NC(=O)[C@H](CCCCNC(=O)[C@H](CC(C)C)NC(=O)[C@H](CCCCNC(=O)[C@H](CC(C)C)NC(=O)[C@@H](N)CCCCN)NC(=O)[C@H](CC(C)C)NC(=O)[C@@H](N)CCCCN)NC(=O)[C@H](CC(C)C)NC(=O)[C@H](CCCCNC(=O)[C@H](CC(C)C)NC(=O)[C@@H](N)CCCCN)NC(=O)[C@H](CC(C)C)NC(=O)[C@@H](N)CCCCN)C(=O)N[C@@H](CC(C)C)C(=O)N[C@@H](CCCCN)C(=O)N[C@@H](CCCCN)C(N)=O` [L-X22] (HELM PEPTIDE1{K.L.K.L.K.K.L.L.K.L.K.K.[am]}|PEPTIDE2{[CC(C)C[C@H](NC(=O)[C@@H](N)CCCCN)C(=O)NCCCC[C@H](NC(=O)[C@H](CC(C)C)NC(=O)[C@@H](N)CCCCN)C(=O)[*:2]].L}|PEPTIDE3{K.L}|PEPTIDE4{K.L.K.L.K.K.L.L}|PEPTIDE5{[CC(C)C[C@H](NC(=O)[C@@H](N)CCCCN)C(=O)NCCCC[C@H](NC(=O)[C@H](CC(C)C)NC(=O)[C@@H](N)CCCCN)C(=O)[*:2]].L}|PEPTIDE6{K.L}$PEPTIDE1,PEPTIDE2,5:R3-2:R2|PEPTIDE1,PEPTIDE3,3:R3-2:R2|PEPTIDE4,PEPTIDE5,5:R3-2:R2|PEPTIDE4,PEPTIDE6,3:R3-2:R2|PEPTIDE1,PEPTIDE4,9:R3-8:R2$$$V2.0), in the experiment with E. coli W3110 (W3110, pH 5), the minimum inhibitory concentration (MIC) – broadly, the least concentration at which growth counts as inhibited – at pH 5.0, E. coli W3110 stood at 8 μg/mL. Besides, the “MIC at pH 7.4, E. coli W3110” value against E. coli W3110 (W3110, pH 7.4) stood at 4 μg/mL. In addition, in the experiment with E. coli W3110 (W3110, pH 8), the “MIC at pH 8.0, E. coli W3110” value is 2 μg/mL. Moreover, the minimum inhibitory concentration (MIC) at pH 5.0, A. baumannii ATCC 19606 with A. baumannii ATCC 19606 (ATCC 19606, pH 5) is recorded as 8 μg/mL. The “MIC at pH 7.4, A. baumannii ATCC 19606” value against A. baumannii ATCC 19606 (ATCC 19606, pH 7.4) came to 4 μg/mL. In addition, the “MIC at pH 8.0, A. baumannii ATCC 19606” value in the experiment on A. baumannii ATCC 19606 (ATCC 19606, pH 8) was determined as 2 μg/mL. Also, the “MIC at pH 5.0, P. aeruginosa PAO1” value in the experiment on P. aeruginosa PAO1 (PAO1, pH 5) came out at 8 μg/mL. Also, in the experiment on P. aeruginosa PAO1 (PAO1, pH 7.4), the “MIC at pH 7.4, P. aeruginosa PAO1” value was found to be 4 μg/mL. For the same molecule, in the experiment with P. aeruginosa PAO1 (PAO1, pH 8), the “MIC at pH 8.0, P. aeruginosa PAO1” value came out at 4 μg/mL. In the experiment on K. pneumoniae NCTC 418 (NCTC 418, pH 5), the minimum inhibitory concentration (MIC) at pH 5.0, K. pneumoniae NCTC 418 is listed as over 64 μg/mL. Moreover, the minimal inhibitory concentration (MIC) at pH 7.4, K. pneumoniae NCTC 418 in the experiment with K. pneumoniae NCTC 418 (NCTC 418, pH 7.4) is listed as over 64 μg/mL. The minimal inhibitory concentration (MIC) at pH 8.0, K. pneumoniae NCTC 418 with K. pneumoniae NCTC 418 (NCTC 418, pH 8) stood at 8 μg/mL. In experiment [1] (COL (methicillin-resistant, pH 5)), the minimal inhibitory concentration (MIC) at pH 5.0, S aureus COL is reported as over 64 μg/mL. Further, the minimum inhibitory concentration (MIC) at pH 7.4, S aureus COL in [1] (COL (methicillin-resistant, pH 7.4)) is reported as over 64 μg/mL. The “MIC at pH 8.0, S aureus COL” value in [1] (COL (methicillin-resistant, pH 8)) was determined as 8 μg/mL. In addition, the “MIC, S. maltophilia” value against S. maltophilia worked out at 4 µg/mL (≈ 0.914 µM). Besides, in the experiment on P. aeruginosa PA14, the “MIC, P. aeruginosa PA14” value is 4 µg/mL (≈ 0.914 µM). For the same molecule, in the experiment on P. aeruginosa ZEM-1A, the “MIC, P. aeruginosa ZEM-1A” value stood at 4 µg/mL (≈ 0.914 µM). Also, in the experiment with E. cloacae, the “MIC, E. cloacae” value amounted to 4 µg/mL (≈ 0.914 µM). Further, in the experiment with K. pneumoniae OXA-48, the “MIC, K. pneumoniae OXA-48” value was 8 µg/mL (≈ 1.83 µM). Also, the “MIC, P. aeruginosa ZEM9A” value in the experiment with P. aeruginosa ZEM9A was 32 µg/mL (≈ 7.31 µM). Moreover, the “MIC, B. cenocepacia” value with B. cenocepacia was over 64 µg/mL. In addition, the “MIC, S. aureus Newman” value in the experiment on S. aureus Newman is over 64 µg/mL.
